Experimental data from PMC11766344, “HGS Promotes Tumor Growth, Whereas the Coiled-Coil Domain and Its Oligopeptide of HGS Suppress It” (International Journal of Molecular Sciences, 2025).
“Also recorded” adds a separate entry of the source.

How the values were obtained:
COLO205 cells = assay: Oligopeptide tumor growth inhibition test, subcutaneous COLO205 tumors in nude mice; assay type: in vivo, nude mice (BALB/cSlc-nu/nu)
From the text: The effect of OP12-462 on anchorage-independent growth was examined; normal cells can proliferate in an anchorage-dependent manner but cannot in an anchorage-independent manner, whereas cancer cells can both proliferate in the anchorage-independent manner and form tumors. In normal (adhesion) plates, cancer cells adhere to the surface of plates and proliferate in the anchorage-dependent manner, so the anchorage-independent growth ability of the cancer cells cannot be observed. In ultra-low attachment surface (ULAS) plates, the cancer cells cannot adhere to the surface nor proliferate in the anchorage-dependent manner but can proliferate in the anchorage-independent manner. By measuring the proliferation ability of cancer cells on the ULAS plates, we can determine the anchorage-independent growth ability of the cells. […]
After a 2-week acclimation period, 8-week-old female C57BL/6 or nude mice were randomly divided into groups. […] Tumor formation was monitored for 4 or 5 weeks after the inoculation by measuring the width (W) and length (L) of the tumors with W < L. The tumor volume was calculated according to the formula (W2 × L × π/6).
The cells were resuspended at a cell density of 1 × 10^6 cells in 100 µL of PBS and were inoculated subcutaneously into the flank region of 8-week-old female nude mice. […] Tumor sizes were measured daily.

normal or cancer cells = assay: Acute toxicity to cells in vitro; assay type: cell-based
From the text: HGS/C and oligopeptides constituting HGS/C, including OP12-462, might be new tumor growth inhibitors that suppress tumor growth by inhibiting the anchorage-independent growth ability of cancer cells rather than directly destroying cancer cells. […] HGS/C and the OP12-462 are novel inhibitors of TGF-β-SMAD and Wnt-β-catenin signal transduction. They not only have a novel tumor growth suppression effect but also have the potential to become novel medicines for diseases, including various fibrosis diseases, whose symptoms worsen owing to the enhancement of these signal transduction pathways. Potential drug targets of EMT in metastasis are now in development. HGS and HGS/C are an inducer and an inhibitor of EMT and tumorigenesis. Therefore, HGS and HGS/C could be good targets of EMT-blocking drugs for clinical application.

MDCK normal cells = assay: Anchorage-dependent growth in normal adhesion plates, MDCK normal cells; assay type: cell-based, canine
From the text: (§1) The effect of OP12-462 on anchorage-independent growth was examined; normal cells can proliferate in an anchorage-dependent manner but cannot in an anchorage-independent manner, whereas cancer cells can both proliferate in the anchorage-independent manner and form tumors. In normal (adhesion) plates, cancer cells adhere to the surface of plates and proliferate in the anchorage-dependent manner, so the anchorage-independent growth ability of the cancer cells cannot be observed. In ultra-low attachment surface (ULAS) plates, the cancer cells cannot adhere to the surface nor proliferate in the anchorage-dependent manner but can proliferate in the anchorage-independent manner. By measuring the proliferation ability of cancer cells on the ULAS plates, we can determine the anchorage-independent growth ability of the cells. […] Next, the effect of OP12-462 on tumor growth was examined. COLO 205 cells were inoculated subcutaneously into the back of BALB/cSlc-nu/nu nude mice. The day when the tumor volume exceeded 250 mm^3 was set as day 0, and OP12-462 (50 mg/kg body weight) in 0.2 mL of PBS solution or vehicle (PBS) was administered once a day into the tail vein for 10 days from day 0 to day 9.

COLO 205 cells = assay: In vitro anchorage-independent growth inhibition test, ULAS plate; assay type: cell-based, human; conditions: 2 × 10^3 cells/well, ULAS 96-well plate, Opti-MEM 5% FBS, 7 days, 37 °C, Cell Counting Kit-8 A450 nm
From the text: The effect of OP12-462 on anchorage-independent growth was examined; normal cells can proliferate in an anchorage-dependent manner but cannot in an anchorage-independent manner, whereas cancer cells can both proliferate in the anchorage-independent manner and form tumors. In normal (adhesion) plates, cancer cells adhere to the surface of plates and proliferate in the anchorage-dependent manner, so the anchorage-independent growth ability of the cancer cells cannot be observed. In ultra-low attachment surface (ULAS) plates, the cancer cells cannot adhere to the surface nor proliferate in the anchorage-dependent manner but can proliferate in the anchorage-independent manner. By measuring the proliferation ability of cancer cells on the ULAS plates, we can determine the anchorage-independent growth ability of the cells. […] Next, the effect of OP12-462 on tumor growth was examined. COLO 205 cells were inoculated subcutaneously into the back of BALB/cSlc-nu/nu nude mice. […]
After 7 days, 0.1 mL of Cell Counting Kit-8 solution (5-fold PBS diluted solution) was added, and the absorbance A450 nm was immediately measured and set as the T0 blank value. After incubating at 37 °C for 2 h, the absorbance A450 nm was measured again and set as T2. The absorbance difference between T2 and T0 was defined as the anchorage-independent or anchorage-dependent growth activity value.

[1] = Body weight and acute toxicity in tumor-bearing nude mice given OP12-462; assay type: in vivo, nude mice (BALB/cSlc-nu/nu)
From the text: as §1
The cells were resuspended at a cell density of 1 × 10^6 cells in 100 µL of PBS and were inoculated subcutaneously into the flank region of 8-week-old female nude mice. The day when the tumor volume exceeded 250 mm^3 was set as Day 0, and oligopeptide OP12-462 (50 mg/kg body weight) was administered as a 0.2 mL PBS solution in the tail vein once daily for 10 days from Day 0 to Day 9. Tumor sizes were measured daily.

ERRLYYEGLQDK [OP12-462, oligopeptide of 12 amino acid residues (…) constituting the coiled-coil domain of HGS]
Tumor growth (tumor volume) versus vehicle (COLO205 cells; 50 mg/kg body weight in 0.2 mL PBS, tail vein, once daily for 10 days (day 0 to day 9), day 0 = tumor volume exceeded 250 mm^3, nude mice, n = 5): statistically significant from the third day onwards; also recorded: significantly suppressed the growth of the tumor
Duration of tumor growth suppression after end of administration (COLO205 cells; 50 mg/kg tail vein once daily day 0 to day 9, nude mice with COLO205 tumors): for more than two weeks after the administration had ended
Acute toxicity to normal or cancer cells in vitro (normal or cancer cells): no acute toxicity
Anchorage-dependent growth of MDCK normal cells (MDCK normal cells): did not inhibit
Anchorage-independent growth activity (COLO 205 cells): inhibited the anchorage-independent growth activity of COLO 205 cells (Figure 5b) in a concentration-dependent manner
Average body weight / weight loss ([1]; 50 mg/kg tail vein for 10 consecutive days): no change in the average body weight; also recorded: did not result in weight loss
Acute toxicity due to administration ([1]; 50 mg/kg tail vein once daily for 10 days): No acute toxicity
Changes in body weight of each mouse ([1]; ten days after administration, 50 mg/kg tail vein once daily for 10 days): −0.4% to +2
